Experimental findings from patent US20240376085A1 (Janssen Pharmaceutica NV, priority 2021, published 2024) are described below.

Where only a bound is given, the exact number is not on record here.

The target in one experiment is T1, IL-17A : IL-17RA binding (Homo sapiens, UniProt Q16552, K93Q).
T1 construct: Name: IL-17A-Flag
The experiment can be described thus: IL-17A(FLAG-tagged):IL-17RA(His-tagged) binding disruption Eu-HTRF assay, Protocol 1. Particulars: FLAG-IL-17A 2.5 nM at 2x final concentration; average if tested more than once. The method in brief: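 IC50 came from a one-site competition fit of the acceptor/donor (665/620 nm) HTRF ratio. His-tagged IL-17RA, Eu-anti-FLAG and D2-anti-His were added after a 1 h rt compound preincubation with FLAG-tagged IL-17A dimer in PBS/0.01% Triton X-100, followed by 2 h at rt before reading.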

For experiment [1], the system named is IL-17A-induced G-CSF production in human normal keratinocyte (NHK). Kind of experiment: NHK assay: IL-17A-induced G-CSF production in normal human keratinocytes. The experiment is classed as cell-based. The settings on record: 24 h, IL-17A 5 ng/mL, average if tested more than once. The method in brief:
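Stimulus rhIL-17A 5 ng/mL final, premixed 1 h rt with compound; adult NHK, 5% FBS, 0.2% DMSO. Viability by CellTiter-Glo vs DMSO.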

T1 sequence (Q16552 with tags, fused parts or gaps K93Q): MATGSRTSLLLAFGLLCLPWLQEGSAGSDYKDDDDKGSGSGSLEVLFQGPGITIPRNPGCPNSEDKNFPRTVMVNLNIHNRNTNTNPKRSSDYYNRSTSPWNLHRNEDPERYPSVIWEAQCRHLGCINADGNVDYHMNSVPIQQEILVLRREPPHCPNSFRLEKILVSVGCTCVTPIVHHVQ

For the compound `Cc1nocc1C(=O)N[C@@H](COC(C)(C)C(F)(F)F)c1nc2ccc([C@H](NC(=O)CC3CC(F)(F)C3)C3CC3)cc2[nH]1` [Example 77, N—((R)-1-(6-((R)-Cyclopropyl(2-(3,3-difluorocyclobutyl)acetamido)methyl)-1H-benzo[d]imidazol-2-yl)-2-((1,1,1-trifluoro-2-methylpropan-2-yl)oxy)ethyl)-3-methylisoxazole-4-carboxamide], the IC50 lay within 50 to 100 nM on IL-17A : IL-17RA binding and 50 to 100 nM in experiment [1] (Homo sapiens, Keratinocyte).
For the compound `CC(C)c1ccsc1C(=O)N[C@H](c1nc2cc([C@@H](C)NC(=O)CCC(F)(F)F)ccc2[nH]1)C1CCC(F)(F)CC1` [Example 205, N—((S)-(4,4-Difluorocyclohexyl)(5-((R)-1-(4,4,4-trifluorobutanamido)ethyl)-1H-benzo[d]imidazol-2-yl)methyl)-3-isopropylthiophene-2-carboxamide], the IC50 was under 50 nM at IL-17A : IL-17RA binding and 50 to 100 nM in experiment [1] (Homo sapiens, Keratinocyte).
For `Cc1nonc1C(=O)N[C@@H](CC1(C(F)(F)F)CC1)c1nc2ccc([C@H](NC(=O)CC3CC(F)(F)C3)C3CC3)cc2[nH]1` [Example 242, N—((S)-1-(6-((R)-Cyclopropyl(2-(3,3-difluorocyclobutyl)acetamido)methyl)-1H-benzo[d]imidazol-2-yl)-2-(1-(trifluoromethyl)cyclopropyl)ethyl)-4-methyl-1,2,5-oxadiazole-3-carboxamide], in that order: over 100 nM and over 100 nM.
Regarding `Cc1nonc1C(=O)N[C@H](c1nc2cc([C@H](NC(=O)CC3CC(F)(F)C3)C3CC3)ccc2[nH]1)C1CCC(F)(F)CC1` [Example 141, N—((S)-(5-((R)-Cyclopropyl(2-(3,3-difluorocyclobutyl)acetamido)methyl)-1H-benzo[d]imidazol-2-yl)(4,4-difluorocyclohexyl)methyl)-4-methyl-1,2,5-oxadiazole-3-carboxamide], the half-inhibitory concentration (IC50) is under 50 nM on IL-17A : IL-17RA binding and under 50 nM in experiment [1] (Homo sapiens, Keratinocyte).
Consider `C[C@@H](NC(=O)CCC(F)(F)F)c1ccc2[nH]c([C@@H](NC(=O)c3cnn(CCC4CC4)n3)C3CCC(F)(F)CC3)nc2c1` [Example 12, 2-(2-Cyclopropylethyl)-N—[(S)-(4,4-difluorocyclohexyl)-[6-[(1R)-1-(4,4,4-trifluorobutanoylamino)ethyl]-1H-benzimidazol-2-yl]methyl]triazole-4-carboxamide], for which the IC50 at IL-17A : IL-17RA binding is 50 to 100 nM; in experiment [1] (Homo sapiens, Keratinocyte), over 100 nM.
`C[C@@H](NC(=O)CC(C(F)(F)F)C(F)(F)F)c1ccc2[nH]c([C@@H](NC(=O)c3ccnn3C)C3CCC(F)(F)CC3)nc2c1` [Example 116, N—((S)-(4,4-Difluorocyclohexyl)(5-((R)-1-(4,4,4-trifluoro-3-(trifluoromethyl)butanamido)ethyl)-1H-benzo[d]imidazol-2-yl)methyl)-1-methyl-1H-pyrazole-5-carboxamide]: the IC50 was 50 to 100 nM at IL-17A : IL-17RA binding and under 50 nM in experiment [1] (Homo sapiens, Keratinocyte).
`C[C@@H](NC(=O)CCC(F)(F)F)c1ccc2[nH]c([C@@H](NC(=O)c3cnc(CCC(F)(F)F)s3)C3CCC(F)(F)CC3)nc2c1` [Example 222, N—((S)-(4,4-Difluorocyclohexyl)(5-((R)-1-(4,4,4-trifluorobutanamido)ethyl)-1H-benzo[d]imidazol-2-yl)methyl)-2-(3,3,3-trifluoropropyl)thiazole-5-carboxamide]: the IC50 on IL-17A : IL-17RA binding is over 100 nM; in experiment [1] (Homo sapiens, Keratinocyte) it was over 100 nM.
For `CC(C)c1ncsc1C(=O)N[C@H](c1nc2cc([C@@H](C)NC(=O)CCC(F)(F)F)ccc2[nH]1)C1CCC(F)(F)CC1` [Example 203, N—((S)-(4,4-Difluorocyclohexyl)(5-((R)-1-(4,4,4-trifluorobutanamido)ethyl)-1H-benzo[d]imidazol-2-yl)methyl)-4-isopropylthiazole-5-carboxamide], the IC50 was over 100 nM on IL-17A : IL-17RA binding and over 100 nM in experiment [1] (Homo sapiens, Keratinocyte).
Turning to `Cc1nonc1C(=O)N[C@H](c1nc2ccc([C@H](NC(=O)CC3CC(F)(F)C3)C3CC3)cc2[nH]1)[C@H]1C[C@@H](CC(F)(F)F)C1` (single isomer, unassigned) [Example 244], the IC50 on IL-17A : IL-17RA binding was over 100 nM; in experiment [1] (Homo sapiens, Keratinocyte), over 100 nM.
Consider `Cc1nonc1C(=O)N[C@H](c1nc2ccc([C@H](NC(=O)CC3CC(F)(F)C3)C3CC3)cc2[nH]1)C1CCOC(C)(C)C1` (single isomer, unassigned) [Example 174, N—((S)-(6-((R)-Cyclopropyl(2-(3,3-difluorocyclobutyl)acetamido)methyl)-1H-benzo[d]imidazol-2-yl)((R*)-2,2-dimethyltetrahydro-2H-pyran-4-yl)methyl)-4-methyl-1,2,5-oxadiazole-3-carboxamide], for which the IC50 at IL-17A : IL-17RA binding is over 100 nM; in experiment [1], 50 to 100 nM.
In the case of `C[C@@H](NC(=O)CCC(F)(F)F)c1ccc2nc([C@@H](NC(=O)c3cnnn3CCC(C)(C)C)C3CCC(F)(F)CC3)[nH]c2c1` [Example 68, N—((S)-(4,4-Difluorocyclohexyl)(6-((R)-1-(4,4,4-trifluorobutanamido)ethyl)-1H-benzo[d]imidazol-2-yl)methyl)-1-(3,3-dimethylbutyl)-1H-1,2,3-triazole-5-carboxamide], the IC50 on IL-17A : IL-17RA binding was over 100 nM; in experiment [1] (Homo sapiens, Keratinocyte), over 100 nM.
For `Cc1nonc1C(=O)N[C@@H](CC(C)(C)C(F)(F)F)c1nc2ccc([C@H](NC(=O)CC(C)C(F)(F)F)C3CC3)cc2[nH]1` (single isomer, unassigned) [Example 180, N—((S)-1-(6-((R)-Cyclopropyl((S*)-4,4,4-trifluoro-3-methylbutanamido)methyl)-1H-benzo[d]imidazol-2-yl)-4,4,4-trifluoro-3,3-dimethylbutyl)-4-methyl-1,2,5-oxadiazole-3-carboxamide], the concentration for half-maximal inhibition (IC50) is 50 to 100 nM at IL-17A : IL-17RA binding and over 100 nM in experiment [1].
Take `C[C@@H](NC(=O)CCC(F)(F)F)c1ccc2[nH]c([C@@H](NC(=O)c3cnn(CC(F)(F)F)n3)C3CCC(F)(F)CC3)nc2c1` [Example 22, N—[(S)-(4,4-Difluorocyclohexyl)-[6-[(1R)-1-(4,4,4-trifluorobutanoylamino)ethyl]-1H-benzimidazol-2-yl]methyl]-2-(2,2,2-trifluoroethyl)triazole-4-carboxamide]: the IC50 on IL-17A : IL-17RA binding was over 100 nM; in experiment [1] (Homo sapiens, Keratinocyte) it was over 100 nM.
With `CC(CC(=O)N[C@@H](c1ccc2[nH]c([C@H](COC(C)(C)C(F)(F)F)NC(=O)c3nonc3C3CC3)nc2c1)C1CC1)C(F)F` (single isomer, unassigned) [Example 176, 4-Cyclopropyl-N—((R)-1-(5-((R)-cyclopropyl((S*)-4,4-difluoro-3-methylbutanamido)methyl)-1H-benzo[d]imidazol-2-yl)-2-((1,1,1-trifluoro-2-methylpropan-2-yl)oxy)ethyl)-1,2,5-oxadiazole-3-carboxamide], the IC50 at IL-17A : IL-17RA binding is under 50 nM; in experiment [1], over 100 nM.
For the compound `C[C@@H](NC(=O)CCC(F)(F)F)c1ccc2[nH]c([C@@H](NC(=O)c3cnn(CCOC(F)(F)F)n3)C3CCC(F)(F)CC3)nc2c1` [Example 35, N—[(S)-(4,4-Difluorocyclohexyl)-[6-[(1R)-1-(4,4,4-trifluorobutanoylamino)ethyl]-1H-benzimidazol-2-yl]methyl]-2-[2-(trifluoromethoxy)ethyl]triazole-4-carboxamide], the half-maximal inhibitory concentration (IC50) at IL-17A : IL-17RA binding is over 100 nM; in experiment [1] (Homo sapiens, Keratinocyte) it was over 100 nM.
